One data set concerns the target CYP3A (Homo sapiens, UniProt P08684). Nature of the data set: Inhibition of CYP3A-catalyzed midazolam 1'-hydroxylation in pooled human liver microsomes. The format is in vitro ADME. The procedure: The inhibitory potential of the five biflavonoids on the metabolism of nine P450 probe substrates was evaluated using previously developed methods with minor modifications. Biflavonoids were dissolved in methanol. The final concentration of methanol in the incubation mixture was 1.0% (v/v). We used these P450 probe substrates: phenacetin for CYP1A2, coumarin for CYP2A6, bupropion for CYP2B6, amodiaquine for CYP2C8, diclofenac for CYP2C9, omeprazole for CYP2C19, dextromethorphan for CYP2D6, chlorzoxazone for CYP2E1 and midazolam for CYP3A (Table 1). […] The reaction was stopped by adding 50 μL of ice-cold acetonitrile containing 7 nM trimipramine (internal standard, IS). After centrifugation at 18,000 g (5 min, 4 °C), aliquots of supernatants were analyzed by LC-MS/MS (Shimadzu LCMS 8060 system, Shimadzu, Kyoto, Japan). All microsomal incubations were conducted in triplicate. We used HLMs to determine the mechanisms and constants (Ki values) for […] A inhibition of CYP1A2, CYP2B6, CYP2C8, CYP2C9 and CYP3A. […] The substrates were used at concentrations approximately near to their respective Km values. […] The other conditions were the same as in the cytochrome P450 inhibition study. […] Phenomenex, Torrance, CA, USA) and analyzed using a Shimadzu LCMS 8060 triple-quadrupole mass spectrometer coupled with a Nexera X2 ultra high-performance liquid chromatography system (Shimadzu, Kyoto, Japan) equipped with an electrospray ionization interface. The mobile phase consisted of 0.1% formic acid in water (A) and 0.1% formic acid in acetonitrile (B). […] The flow rate was 0.2 mL/min. Electrospray ionization was performed in positive-ion mode at 4000 V or in negative-ion mode at -3500 V. […] Quantitation was conducted in selected reaction monitoring (SRM) modes with the precursor-to-product ion transition for each metabolite (Table 1 and Table 2). We analyzed the data with Shimadzu LabSolution LC-MS software. The IC50 values were calculated by WinNonlin software (Pharsight, Mountain View, CA, USA). The type of inhibition and the apparent kinetic parameters for inhibitory activity (Ki) were determined by following several criteria: visual inspection of Dixon plots, Lineweaver-Burk double reciprocal plots, and secondary plots of Lineweaver-Burk plots versus biflavonoid concentrations, the size of the sum of squares of the residuals, Akaike Information Criteria values, the S.E. and 95% confidence interval of the parameter estimates from the nonlinear regression analysis using the WinNonlin software. The models tested included competitive, competitive partial, noncompetitive, noncompetitive partial, uncompetitive, uncompetitive partial, and mixed-type inhibition.

The next data set deals with T1, UGT1A1 (Homo sapiens, UniProt P22309).
T1 sequence (P22309 26-533): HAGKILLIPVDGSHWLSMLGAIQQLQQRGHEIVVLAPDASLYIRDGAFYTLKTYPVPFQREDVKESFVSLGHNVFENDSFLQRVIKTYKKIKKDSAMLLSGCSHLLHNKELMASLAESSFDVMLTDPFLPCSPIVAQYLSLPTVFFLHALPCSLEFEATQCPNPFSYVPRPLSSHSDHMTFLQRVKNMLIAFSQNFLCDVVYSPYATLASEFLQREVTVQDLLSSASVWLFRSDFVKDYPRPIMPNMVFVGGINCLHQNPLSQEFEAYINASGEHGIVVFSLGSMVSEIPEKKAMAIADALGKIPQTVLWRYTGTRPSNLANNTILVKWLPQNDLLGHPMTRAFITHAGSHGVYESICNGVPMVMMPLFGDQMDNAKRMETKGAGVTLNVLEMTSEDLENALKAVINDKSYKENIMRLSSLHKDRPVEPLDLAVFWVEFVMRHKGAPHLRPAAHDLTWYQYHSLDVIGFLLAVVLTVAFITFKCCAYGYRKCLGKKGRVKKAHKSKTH
Put plainly: Inhibition of UGT1A1 (SN-38 glucuronidation) in human liver microsomes. Further details: tissue XenoTech XTreme 200; host or cells: pooled human liver microsomes. As to conditions: substrate SN-38; HLMs 0.25 mg/mL; average ± standard error. The format is in vitro ADME. The procedure: The ability of selamariscina A to inhibit the metabolism of six UGT enzyme probe substrates was evaluated using previously developed methods with minor modifications. The microsomal incubation was performed by dividing the non-interactive substrate cocktail sets (set A included SN-38 for UGT1A1, CDCA for UGT1A3 and TFP for UGT1A4 while set B included N-SER for UGT1A6, MPA for UGT1A9 and NX for UGT2B7) (Table 2). In brief, HLMs (0.25 mg/mL) were activated by incubation in the presence of alamethicin (25 µg/mL) for 15 min on ice. After the addition of UGT probe substrates and inhibitor (0, 0.5, 2, 5, 20 and 50 μM), the incubation mixtures were pre-incubated at 37 °C for 5 min. […] After centrifugation at 18,000 g (5 min, 4 °C), aliquots of supernatants were analyzed by LC–MS/MS. […]
All metabolites and the IS were separated on a Kinetex XB-C18 column (100 × 2.10 mm, 2.6 μm, 100 Å; Phenomenex, Torrance, CA, USA) and analyzed using a Shimadzu LCMS 8060 triple-quadrupole mass spectrometer coupled with a Nexera X2 ultra high-performance liquid chromatography system (Shimadzu, Kyoto, Japan) equipped with an electrospray ionization interface. […] Quantitation was conducted in selected reaction monitoring (SRM) modes with the precursor-to-product ion transition for each metabolite (Table 1 and Table 2).
We analyzed the data with Shimadzu LabSolution LC–MS software. […]

Where [1] appears, read: human, pooled human liver microsomes, probe midazolam (5 µM), substrate midazolam 5 µM, pooled HLMs, read-out: IC50, P450 3A.

Each structure is given as a SMILES string. Read-outs that look alike come from different tables or passages of the source.

The results in this text go back to article PMC7238120, “Strong and Selective Inhibitory Effects of the Biflavonoid Selamariscina A against CYP2C8 and CYP2C9 Enzyme Activities in Human Liver Microsomes” (Pharmaceutics, 2020).

CYP3A, sequence (P08684 2-503): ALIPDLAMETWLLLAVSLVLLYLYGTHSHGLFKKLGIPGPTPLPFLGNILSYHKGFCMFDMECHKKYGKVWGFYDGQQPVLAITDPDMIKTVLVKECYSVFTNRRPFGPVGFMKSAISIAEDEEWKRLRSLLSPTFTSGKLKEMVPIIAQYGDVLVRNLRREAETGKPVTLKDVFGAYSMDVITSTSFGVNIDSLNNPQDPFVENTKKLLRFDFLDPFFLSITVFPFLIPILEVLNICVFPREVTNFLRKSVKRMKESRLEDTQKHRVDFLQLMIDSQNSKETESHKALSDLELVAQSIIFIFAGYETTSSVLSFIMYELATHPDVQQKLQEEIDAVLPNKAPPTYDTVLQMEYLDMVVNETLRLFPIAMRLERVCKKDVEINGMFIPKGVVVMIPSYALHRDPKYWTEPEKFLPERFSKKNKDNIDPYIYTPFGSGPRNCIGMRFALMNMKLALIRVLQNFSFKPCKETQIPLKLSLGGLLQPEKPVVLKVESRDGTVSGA

Consider `O=c1cc(-c2ccc(O)c(-c3c(O)cc4oc(-c5ccc(O)cc5)cc(=O)c4c3O)c2)oc2cc(O)cc(O)c12` [robustaflavone], for which the 50% inhibitory concentration (IC50) at 10 min on CYP3A (setting [1]) amounted to 1200 nM. With `O=c1cc(-c2ccc(O)c(-c3c(-c4ccc(O)cc4)oc4cc(O)cc(O)c4c3=O)c2)oc2cc(O)cc(O)c12` [taiwaniaflavone], on CYP3A (setting [1]), the IC50 at 10 min was 1200 nM.

Turning to `O=C1CC(c2cc(-c3c(O)ccc4c(=O)cc(-c5ccc(O)cc5)oc34)c(O)cc2O)Oc2cc(O)cc(O)c21` (stereo not shown) [selamariscina A], the “Mode of Inhibition, CYP3A midazolam” value at CYP3A (HLMs) is “Noncompetitive”. Besides, the half-inhibitory concentration (IC50) at 10 min on CYP3A (setting [1]) turned out to be 2700 nM. The same compound yielded a Ki at 10 min at CYP3A (human, pooled human liver microsomes, probe midazolam (0.5, 2, 5 μM), HLMs, average ± standard error, triplicate) of 4500 ± 500 nM. In addition, at UGT1A1, the IC50 worked out at 1700 ± 500 nM.

For the compound `CC(C)(O)c1ccccc1CC[C@@H](SCC1(CC(=O)O)CC1)c1cccc(/C=C/c2ccc3ccc(Cl)cc3n2)c1` [montelukast, reference compound], the IC50 at 10 min against CYP3A (human, microsomes) was over 50000 nM. As to `O=c1cc(-c2ccc(O)c(-c3c(O)cc(O)c4c(=O)cc(-c5ccc(O)cc5)oc34)c2)oc2cc(O)cc(O)c12` [amentoflavone], at CYP3A (human, microsomes), the IC50 at 10 min came to 1300 nM. This compound also yielded an IC50 against UGT1A1 of 1700 nM. Turning to `O=c1cc(-c2ccc(O)cc2)oc2c(-c3c(O)cc(O)c4c(=O)cc(-c5ccc(O)cc5)oc34)c(O)cc(O)c12` [cupressuflavone], at CYP3A (setting [1]), the IC50 at 10 min amounted to 1500 nM.
